According to US20070196883A1, “ENZYME” (UNIVERSITY OF DUNDEE, priority 1999, published 2007):
Entries after “also recorded” stand apart in the source; their conditions may differ.

Experiments:
GST-PIF/PDK1 complex = biological target: T1, GST-PIF/PDK1 complex (Homo sapiens, UniProt O15530); test: Phosphorylation of GST-PKBα at Ser473 by GST-PIF/PDK1 (P-473 immunoblot); assay type: biochemical; conditions: lipid 10 μM in PtdCho/PtdSer vesicles, MgATP, 60 min 30° C.
T1 construct: endogenous in cells; host or cells: 293 cells transfected with pEBG2T GST-PIF; endogenous PDK1 co-purified on glutathione-Sepharose
Procedure: FIG. 5. The ability of GST-PIF to phosphorylate PKBα at Ser473 is dependent upon the presence of PDK1. GST-PIF purified from 293 cells, FIG. 2C (20 μg in 50 μl) was incubated with Protein G-Sepharose (10 μl) conjugated with either no antibody (control), MSK1 antibody A [40] (5 μg, non specific antibody), a PDK1 antibody raised against the whole protein (5 μg) or a PDK1 peptide antibody raised against the 16 C-terminal amino acid residues of PDK1 (5 μg, peptide antibody) in the presence or absence of the PDK1 C-terminal peptide immunogen (0.2 mM) to which this antibody was raised. After incubation on a shaking platform for 60 min at 4° C., the suspension was centrifuged and GST-PIF in the supernatant (2.0 μg) was incubated with GST-PKBα and MgATP for 60 min at 30° C. in the presence or absence of phospholipid vesicles containing 100 μM PtdCho, 100 μM PtdSer, and 10 μM sn-1-stearoyl-2-arachidonoyl-D-PtdIns(3,4,5)P3 (1,2-SAD-PtdIns(3,4,5)P3), or sn-1,2 di-palmitoyl-D-PtdIns(3,4,5)P3 (C16-PtdIns(3,4,5)P3) or sn-1,2 di-palmitoyl-D-PtdIns(3,4)P2 (C16-PtdIns(3,4)P2). The reactions were terminated by making the solutions 1% in SDS, and the samples were subjected to SDS/polyacylamide gel electrophoresis and immunoblotted using the P-Ser473 antibody. Identical results were obtained in 2 separate experiments (B) The wild type and mutant GST-PIF proteins (2.0 μg) used in FIG. 3 were incubated with GST-PKBα and MgATP for 60 min at 30° C. in the presence or absence of lipid vesicles containing 10 μM sn-1-stearoyl-2-arachidonoyl-D-PtdIns(3,4,5)P3 and the degree of phosphorylation of PKBα at Ser473 was established by immunoblotting. Similar results were obtained in 4 separate experiments using 2 different preparations of the wild type and mutant GST-PIF proteins.
FIG. 7. Specificity of phosphoinositide-dependent PIF/PDK1-induced phosphorylation of Thr308 and Ser473 of PKBα. GST-PKBα was incubated for 60 min at 30° C. with GST-PIF purified from 293 cells (which is associated with endogenous PDK1 see FIG. 3) (1.0 μg), MgATP and phospholipid vesicles containing 100 μM PtdCho, 100 μM PtdSer, and various PtdIns lipids (numbered 1-11, see below) all at a final concentration of 10 μM in the assay. In panel A the reactions were terminated by the addition of Triton X100 and the increase in specific activity of GST-S473D-PKBα (U/mg), determined, relative to a control incubation in which GST-PIF was omitted (±SEM for 6 determinations, two independent experiments). The basal activity of GST-S473D-PKBα was 3.5 U/mg. In Panel B the reactions were terminated by making the solutions 1% in SDS, the samples were subjected to SDS/polyacylamide gel electrophoresis and the extent of PKBα phosphorylation was established using the phospho-specific antibody that recognises PKBα phosphorylated at Ser 473. In B the results of 2 separate experiments with different preparations of lipid are shown. Lipid 1, Buffer control; Lipid 2, PtdIns 3P; Lipid 3, n-1,2-dipalmitoyl PtdIns(3,4)P2; Lipid 4, PtdIns(3,5)P2; Lipid 5, PtdIns(4,5)P2; Lipid 6, sn-1,2-dipalmitoyl D-PtdIns(3,4,5)P3; Lipid 7, rac-1,2-dilinoleoyl phosphatidyl D/L-myo-inositol 3,4,5trisphosphate; Lipid 8, sn-1-stearoyl, 2-arachidonoyl D-PtdIns(3,4,5,)P3; Lipid 9, sn-1-stearoyl, 2-arachidonoyl L-PtdIns(3,4,5,)P3; Lipid 10, sn-2-stearoyl, 3-arachidonoyl D-PtdIns(3,4,5,)P3; Lipid 11, sn-2-ste aroyl, 3-arachidonoyl L-PtdIns(3,4,5,)P3.
Phosphorylation of GST-PKBα by incubation with GST-PIF. In experiments in which the phosphorylation of PKBα was determined using the phospho-specific Ser473 PKBα antibodies, the incubations were identical to the Stage 1 described above except that the reactions were terminated by the addition of 1% (by mass) SDS and immunoblotting is carried out as described below. In experiments in which the sites of phosphorylation on PKBα are determined the incubations were identical to the Stage 1 described above except [γ^32P] ATP (1000-2000 cpm/pmol) was used instead of unlabelled ATP. […]

PDK1 = test: Activation of GST-ΔPH-PKBα by PDK1 with or without PIF and phosphoinositide; assay type: biochemical; conditions: for rate at which GST-PIF/PDK1 complex activates GST-ΔPH-PKBα, presence versus absence of lipid: GST-PIF/PDK1 complex purified from 293 cells
Procedure: FIG. 8. Maximal activation of PKB by PDK1/PIF requires PtdIns(3,4,5)P3 to interact with both PKB and PDK1. […] The basal activity of GST-ΔPH-PKBα was 3.0 U/mg.
Measurement of PKBα activation after incubation with GST-PIF. This assay was carried out in 2 stages, as described previously; briefly, in the first, GST-PKBα was incubated with GST-PIF (or other indicated PDK1 proteins in the presence or absence of peptides) in the presence of MgATP and phospholipid vesicles.
In Stage 1, an 15 μl reaction mixture was set up containing 66.5 mM Tris/HCl pH 7.5, 0.13 mM EGTA, 0.13% (by vol) 2-mercaptoethanol, 3.3 μM PKI, 1.3 μM microcystin-LR, 13.3 mM Mg(Ac)2, 133 μM unlabelled ATP, 0.4 μM GST-PKBA, 133 μM PtdSer, 133 μM PtdCho in the presence or absence of 13.3 μM PtdIns(3,4,5)P3. The assay was initiated by the addition of 5 μl of 0.2 mg/ml GST-PIF (or other indicated proteins or peptides), after incubation for 30 min at 30° C., stage 2 of the assay was initiated by the addition of 30 μl of a mixture made up of Buffer B containing 2.5 μM PKI, 1 μM microcystin-LR, 10 mM Mg(Ac)2, 100 μM [γ^32P]ATP (200-400 cpm/pmol), 100 μM of the peptide RPRTAAF (SEQ ID NO:13) and 1.25% (by vol) Triton X-100. After 10 min at 30° C., the reactions were terminated by spotting the reaction mixture on to P81 phosphocellulose paper. The papers were washed in 75 mM phosphoric acid and analysed as described previously. A control reaction in which GST-PKBα was omitted was taken as the blank and was always less than 5% of the activity measured in the presence of GST-PKBα. The basal GST-PKBα activity is the activity measured in the absence of PDK1. 1 Unit of GST-PKBα activity was that amount of enzyme required to catalyse the phosphorylation of 1 nmol of the peptide RPRTAAF (SEQ ID NO:13) in 1 min. The assays were linear with time up to a final concentration of 3 U/ml of PDK1 activity in the assay.

T1 sequence (O15530 whole entry): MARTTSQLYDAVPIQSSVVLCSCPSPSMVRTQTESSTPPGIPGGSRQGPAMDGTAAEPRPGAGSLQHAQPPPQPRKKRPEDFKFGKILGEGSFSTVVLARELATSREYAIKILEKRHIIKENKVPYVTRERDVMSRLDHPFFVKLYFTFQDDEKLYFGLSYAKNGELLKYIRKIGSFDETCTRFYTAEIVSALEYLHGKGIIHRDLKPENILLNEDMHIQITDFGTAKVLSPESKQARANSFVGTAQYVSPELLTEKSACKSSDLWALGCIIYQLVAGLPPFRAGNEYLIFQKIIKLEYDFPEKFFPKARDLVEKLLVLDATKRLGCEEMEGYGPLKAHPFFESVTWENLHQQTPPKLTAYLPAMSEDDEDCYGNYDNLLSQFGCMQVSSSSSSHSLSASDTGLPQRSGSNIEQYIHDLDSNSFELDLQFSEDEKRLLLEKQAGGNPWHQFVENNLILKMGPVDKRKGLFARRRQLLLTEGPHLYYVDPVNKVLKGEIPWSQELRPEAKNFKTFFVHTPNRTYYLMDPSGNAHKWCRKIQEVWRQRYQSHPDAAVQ
T1 sequence (Q16513 908-984 partner): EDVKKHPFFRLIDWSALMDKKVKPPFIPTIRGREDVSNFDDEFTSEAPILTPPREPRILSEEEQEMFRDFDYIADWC

Row | Compound | phosphorylation of GST-PKBα at Ser473 (GST-PIF/PDK1 complex) | rate at which GST-PIF/PDK1 complex activates GST-ΔPH-PKBα, presence versus absence of lipid (PDK1) | further results
1 | CCCCCCCCCCCCCCCC(=O)OCC(COP(=O)(O)OC1C(O)C(O)C(OP(=O)(O)O)C(OP(=O)(O)O)C1O)OC(=O)CCCCCCCCCCCCCCC (stereo not drawn) [Lipid 3, sn-1,2-dipalmitoyl PtdIns(3,4)P2] | may also be effective | ~4 fold | phosphorylation of GST-PKBα at Ser473 (GST-PIF/PDK1 complex; listed as PtdIns(3,4)P2): strongly phosphorylated
2 | CCCCC/C=C\C/C=C\C/C=C\C/C=C\CCCC(=O)O[C@H](COC(=O)CCCCCCCCCCCCCCCCC)COP(=O)(O)O[C@H]1[C@@H](O)[C@H](OP(=O)(O)O)[C@@H](OP(=O)(O)O)[C@H](OP(=O)(O)O)[C@H]1O [Lipid 8, sn-1-stearoyl, 2-arachidonoyl D-PtdIns(3,4,5,)P3] | highly effective; also recorded: may be capable of enhancing | ~4 fold | enhancement of the rate at which PDK1 complexed to PIF activates GST-ΔPH-PKBα (PDK1; His-PDK1/GST-PIF*, presence versus absence of lipid): 3 to 4 fold; rate at which His-PDK1 activates GST-ΔPH-PKBα, presence versus absence of lipid (PDK1; His-PDK1 alone, no PIF): the same; phosphorylation of GST-PKBα at Ser473 (GST-PIF/PDK1 complex; listed as PtdIns(3,4,5)P3): strongly phosphorylated
3 | CCCCC/C=C\C/C=C\C/C=C\C/C=C\CCCC(=O)O[C@H](COC(=O)CCCCCCCCCCCCCCCCC)COP(=O)(O)OC1[C@@H](O)[C@H](OP(=O)(O)O)C(OP(=O)(O)O)[C@H](OP(=O)(O)O)[C@H]1O (stereo partly drawn) [Lipid 9, sn-1-stearoyl, 2-arachidonoyl L-PtdIns(3,4,5,)P3] | failed to induce a significant phosphorylation; also recorded: may not induce | – | –
4 | CCCCC/C=C\C/C=C\C/C=C\C/C=C\CCCC(=O)OC[C@@H](COP(=O)(O)O[C@H]1[C@@H](O)[C@H](OP(=O)(O)O)[C@@H](OP(=O)(O)O)[C@H](OP(=O)(O)O)[C@H]1O)OC(=O)CCCCCCCCCCCCCCCCC [Lipid 10, sn-2-stearoyl, 3-arachidonoyl D-PtdIns(3,4,5,)P3] | highly effective; also recorded: may be capable of enhancing | – | –
5 | PtdIns-3P [Lipid 2] | did not induce | do not increase | –
6 | sn-2-ste aroyl, 3-arachidonoyl L-PtdIns(3,4,5,)P3 [Lipid 11] | failed to induce a significant phosphorylation; also recorded: may not induce | – | –

Second part, led by results:

Row | phosphorylation of GST-PKBα at Ser473 (GST-PIF/PDK1 complex) | Compound | rate at which GST-PIF/PDK1 complex activates GST-ΔPH-PKBα, presence versus absence of lipid (PDK1) | further results
7 | may also be effective | CCCCC/C=C\C/C=C\CCCCCCCC(=O)OCC(COP(=O)(O)OC1C(O)C(OP(=O)(O)O)C(OP(=O)(O)O)C(OP(=O)(O)O)C1O)OC(=O)CCCCCCC/C=C\C/C=C\CCCCC (racemic) [Lipid 7, rac-1,2-dilinoleoyl phosphatidyl D/L-myo-inositol 3,4,5-trisphosphate] | – | –
8 | may also be effective | CCCCCCCCCCCCCCCC(=O)OC[C@H](COP(=O)(O)OC1[C@H](O)[C@H](OP(=O)(O)O)C(OP(=O)(O)O)[C@H](OP(=O)(O)O)[C@H]1O)OC(=O)CCCCCCCCCCCCCCC (stereo partly drawn) [Lipid 6, sn-1,2-dipalmitoyl D-PtdIns(3,4,5)P3] | – | –
9 | did not induce | PtdIns(3,5)P2 [Lipid 4] | – | –
10 | did not induce | PtdIns(4,5)P2 [Lipid 5] | do not increase | –
